Assay [1] concerns the target Translocator protein (Rattus norvegicus, UniProt P16257). Put plainly: Displacement of Ro 5-4864 from peripheral (renal cell) Benzodiazepine receptor.
In assay [2] the target is GABA-A receptor; anion channel. The experiment in a line: Displacement of [3H]flunitrazepam from rat brain GABA-A Benzodiazepine receptor. On the technique in general: Loss of bound radioactivity is the signal in a displacement assay; it reports binding, not function.
Assay [3] has as its target GABA-A receptor; anion channel (Rattus norvegicus) (UniProt O09028+P15431+P18506+P18508+P19969+P20236+P23574+P23576+P28471+P28473+P30191+P62813+P63079+P63138+Q91ZM7+Q9ES14). Put plainly: Percentage inhibition of [3H]flunitrazepam binding to rat brain GABA-A benzodiazepine receptor at 40 uM.
Assay [4] addresses T1, GABA A receptor alpha-2/beta-2/gamma-2 (Homo sapiens, UniProt P18507+P47869+P47870).
T1 sequence (P47870 whole entry): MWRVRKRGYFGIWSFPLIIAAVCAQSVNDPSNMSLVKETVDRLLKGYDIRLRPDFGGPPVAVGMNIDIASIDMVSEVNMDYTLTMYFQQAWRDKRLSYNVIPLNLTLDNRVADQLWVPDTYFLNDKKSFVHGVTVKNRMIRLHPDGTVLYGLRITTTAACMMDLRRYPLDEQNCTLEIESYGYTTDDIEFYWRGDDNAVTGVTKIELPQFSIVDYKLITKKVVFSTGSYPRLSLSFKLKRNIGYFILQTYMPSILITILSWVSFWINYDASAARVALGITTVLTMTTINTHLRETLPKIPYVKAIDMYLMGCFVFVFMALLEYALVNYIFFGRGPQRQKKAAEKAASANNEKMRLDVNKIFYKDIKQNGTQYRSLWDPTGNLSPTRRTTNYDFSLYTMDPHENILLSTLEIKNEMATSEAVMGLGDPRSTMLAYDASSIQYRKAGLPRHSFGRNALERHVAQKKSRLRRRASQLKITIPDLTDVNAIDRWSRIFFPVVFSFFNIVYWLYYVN
T1 sequence (P18507 whole entry): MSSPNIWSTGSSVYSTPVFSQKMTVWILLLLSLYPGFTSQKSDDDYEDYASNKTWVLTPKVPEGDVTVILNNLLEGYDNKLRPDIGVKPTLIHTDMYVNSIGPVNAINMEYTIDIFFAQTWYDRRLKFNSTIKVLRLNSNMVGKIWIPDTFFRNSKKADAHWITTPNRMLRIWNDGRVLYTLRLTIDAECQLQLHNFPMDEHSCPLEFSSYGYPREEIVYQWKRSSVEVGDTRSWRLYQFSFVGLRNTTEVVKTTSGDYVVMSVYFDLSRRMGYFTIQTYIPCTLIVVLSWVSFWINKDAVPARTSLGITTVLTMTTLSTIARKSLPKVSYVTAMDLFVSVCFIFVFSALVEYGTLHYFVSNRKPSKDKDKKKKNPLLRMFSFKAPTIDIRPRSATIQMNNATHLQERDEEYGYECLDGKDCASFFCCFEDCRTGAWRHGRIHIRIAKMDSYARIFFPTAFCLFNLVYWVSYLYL
T1 sequence (P47869 whole entry): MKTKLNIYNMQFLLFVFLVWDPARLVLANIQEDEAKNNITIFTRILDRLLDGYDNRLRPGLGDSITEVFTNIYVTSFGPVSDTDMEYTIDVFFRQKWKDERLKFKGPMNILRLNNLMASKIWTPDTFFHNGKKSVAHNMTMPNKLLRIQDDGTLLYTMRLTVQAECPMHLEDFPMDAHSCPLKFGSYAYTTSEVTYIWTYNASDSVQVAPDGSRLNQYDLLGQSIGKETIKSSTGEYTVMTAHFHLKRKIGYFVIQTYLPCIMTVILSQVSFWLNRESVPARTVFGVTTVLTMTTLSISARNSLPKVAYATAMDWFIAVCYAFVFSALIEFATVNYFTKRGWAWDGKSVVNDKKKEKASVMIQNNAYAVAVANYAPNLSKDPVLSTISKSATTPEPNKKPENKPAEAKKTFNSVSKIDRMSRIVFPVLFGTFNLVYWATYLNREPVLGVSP
The experiment in a line: Potentiation of GABA-evoked Cl- currents in Xenopus oocytes expressing human alpha-2-beta-2-gamma-2 subunits. In kind it is functional, cell-based, Oocyte.

The target in assay [5] is GABA A receptor alpha-2/beta-2/gamma-2 (Homo sapiens) (UniProt P47870+P18507+P47869). Put plainly: Maximal potentiation of GABA-evoked Cl- currents in Xenopus oocytes expressing human alpha-2-beta-2-gamma-2 subunits. In kind it is functional, cell-based. As to conditions: Oocyte.

Each structure is given as a SMILES string.

Sequence of Translocator protein (P16257 whole entry, looked up): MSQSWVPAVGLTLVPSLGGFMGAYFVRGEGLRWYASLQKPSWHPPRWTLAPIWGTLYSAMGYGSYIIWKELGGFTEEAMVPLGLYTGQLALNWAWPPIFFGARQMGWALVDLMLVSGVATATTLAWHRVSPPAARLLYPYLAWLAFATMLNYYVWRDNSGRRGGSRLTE

On to `CCCN(CCC)C(=O)Cc1c(-c2ccccc2)nc2ccc(OC)cn12`, for which the figures for the IC50 in assay [1] and in assay [2] were 33.6 nM and 2830 nM, respectively.

Take `CCCN(CCC)C(=O)Cc1c(-c2ccc(Cl)cc2)nc2c(Cl)cc(C(F)(F)F)cn12`: in assay [3], the inhibition amounted to 0%. Also, in assay [1], the 50% inhibitory concentration (IC50) amounted to 37 nM.

On to `CCCCOC(=O)Cc1c(-c2ccccc2)nc2ccc(C)cn12`, for which the IC50 in assay [1] is more than 100000 nM; in assay [2], 3150 nM.

With `O=C(Cc1c(-c2ccc(Cl)cc2)nc2ccc(Cl)cn12)N1CCCCC1`, the IC50 in assay [1] amounted to 18.7 nM; in assay [2], 240 nM.

In turn, `CCCN(CCC)C(=O)Cc1c(-c2ccc(Cl)cc2)nc2c(Br)cc(Br)cn12` had an inhibition in assay [3] of 17%. For the same compound, the IC50 in assay [1] amounted to 55.3 nM.

For `CCCN(CCC)C(=O)Cc1c(-c2ccc(Cl)cc2)nc2ccc(Br)cn12`, the IC50 in assay [1] amounted to 12 nM; in assay [2] it was 58 nM.

For the compound `CCCN(CCC)C(=O)Cc1c(-c2ccccc2)nc2ccc(C)cn12`, the IC50 came to 34.5 nM in assay [1] and 125 nM in assay [2].

For `CCOC(=O)c1c(-c2ccc(C)cc2)nc2ccc(C)cn12`, the IC50 is more than 100000 nM in assay [1] and 1150 nM in assay [2].

As for `CCCN(CCC)C(=O)Cc1c(-c2ccccc2)nc2ccc(Br)cn12`, the IC50 stood at 14.5 nM in assay [1] and 116 nM in assay [2].

In the case of `CCCN(CCC)C(=O)Cc1c(-c2ccccc2)nc2ccccn12`, the IC50 in assay [1] worked out at 80 nM; in assay [2], 464 nM.

On to `CCOC(=O)CCc1c(-c2ccccc2)nc2ccc(Cl)cn12`, for which the IC50 in assay [1] was more than 100000 nM; in assay [2], 1110 nM.

Regarding `O=C(c1c(-c2ccc(Cl)cc2)nc2ccc(Cl)cn12)N1CCCC1`, the IC50 in assay [1] is more than 100000 nM; in assay [2] it was 2980 nM.

As for `CCCCOC(=O)CCc1c(-c2ccccc2)nc2ccc(Cl)cn12`, the values for the IC50 in assay [1] and in assay [2] were more than 100000 nM and 1180 nM, respectively.

As to `CCOC(=O)Cc1c(-c2ccc(Cl)cc2)nc2ccc(Cl)cn12`, the values for the half-maximal inhibitory concentration (IC50) in assay [1] and in assay [2] were more than 100000 nM and 695 nM, respectively.

`CCCN(CCC)C(=O)Cc1c(-c2ccccc2)nc2c(C)cc(Br)cn12` had an inhibition in assay [3] of 68%. The compound further showed an IC50 in assay [1] of 13.5 nM.

On to `CCCN(CCC)C(=O)Cc1c(-c2ccccc2)nc2c(Cl)cc(Cl)cn12`, for which the inhibition in assay [3] was 46%. Besides, in assay [1], the IC50 was 12 nM.

In the case of `CCCN(CCC)C(=O)Cc1c(-c2ccc(Cl)cc2)nc2ccc(Cl)cn12` [ALPIDEM], the figures for the IC50 in assay [1] and in assay [2] were 7.9 nM and 26 nM, respectively.

Consider `O=C(Cc1c(-c2ccc(Cl)cc2)nc2ccc(Cl)cn12)N1CCCC1`, for which the half-inhibitory concentration (IC50) in assay [1] was found to be 287 nM; in assay [2] it was 92 nM. In addition, the EC50 in assay [4] is 6600 nM. The Efficacy in assay [5] turned out to be 71%.

Take `CCCN(CCC)C(=O)Cc1c(-c2ccccc2)nc2c(Br)cc(C)cn12`: the inhibition in assay [3] was determined as 78%. The compound further showed an IC50 in assay [1] of 19 nM.

Consider `CCOC(=O)c1c(-c2ccccc2)nc2ccc(Cl)cn12`, for which the IC50 in assay [1] was more than 100000 nM; in assay [2], 2120 nM.

For `CCCN(CCC)C(=O)Cc1c(-c2ccccc2)nc2ccc(I)cn12`, the IC50 came to 23 nM in assay [1] and 286 nM in assay [2].

In turn, `Cc1ccc(-c2nc3ccc(C)cn3c2CC(=O)N(C)C)cc1` [ZOLPIDEM] registered an IC50 in assay [1] of 4700 nM. The Efficacy in assay [5] was 150%.

For the compound `CCCN(CCC)C(=O)Cc1c(-c2ccccc2)nc2ccc([N+](=O)[O-])cn12`, the IC50 came to 11.8 nM in assay [1] and 2740 nM in assay [2].

In the case of `CCCCOC(=O)Cc1c(-c2ccccc2)nc2ccc(Cl)cn12`, the IC50 in assay [1] was more than 100000 nM; in assay [2], 2500 nM.

`CCCCOC(=O)Cc1c(-c2ccc(Cl)cc2)nc2ccc(Cl)cn12`: the results for the IC50 in assay [1] and in assay [2] were more than 100000 nM and 2780 nM, respectively.

Take `CCCN(CCC)C(=O)CCc1c(-c2ccccc2)nc2ccc(Cl)cn12`: the figures for the IC50 in assay [1] and in assay [2] were 3270 nM and 308 nM, respectively.

`CCCN(CCC)C(=O)c1c(-c2ccc(Cl)cc2)nc2ccc(Cl)cn12` came in with an IC50 in assay [1] of 426 nM.

As to `CCCN(CCC)C(=O)Cc1c(-c2ccccc2)nc2ccc(Cl)cn12`, the IC50 was found to be 4 nM in assay [1] and 86 nM in assay [2]. Further, the EC50 in assay [4] was 130 nM. Besides, in assay [5], the Efficacy stood at 139%.

For the compound `CCOC(=O)Cc1c(-c2ccccc2)nc2ccc(Cl)cn12`, the IC50 in assay [1] was more than 100000 nM; in assay [2], 1170 nM.

Consider `CCN(CC)C(=O)c1c(-c2ccc(Cl)cc2)nc2ccc(Cl)cn12`, for which the IC50 is 2040 nM in assay [1] and 8380 nM in assay [2].

For the compound `CCOC(=O)Cc1c(-c2ccccc2)nc2ccc(C)cn12`, the figures for the half-inhibitory concentration (IC50) in assay [1] and in assay [2] were more than 100000 nM and 1390 nM, respectively.

In assay [3], `CCCN(CCC)C(=O)Cc1c(-c2ccc(Cl)cc2)nc2c(Cl)cc(Cl)cn12` [ALPDEM] displayed an inhibition of 0%. In assay [1], this compound showed a 50% inhibitory concentration (IC50) of 20 nM.

As usually defined, the IC50 is the concentration that inhibits the measured activity by half. As a reminder, the inhibition is the share of the control response that was lost under treatment. One may read the EC50 as the concentration that produces a half-maximal response.

The values above are taken from ChEMBL document CHEMBL1130157 (J Med Chem, 1997).
